What all share (assay type): in vivo
Assay [1] deals with Sphaerotheca fuliginea. Nature of the assay: Sphaerotheca test (cucumber)/protective. Conditions: Podosphaera fuliginea, 168 h, cucumber plants, protective spray, evaluation 7 days after inoculation, read-out: Efficacy (%). As for the experimental part: Sphaerotheca Test (Cucumber)/Protective
(§1) Solvent: 49 parts by weight of N,N-dimethylformamide
(§2) Emulsifier: 1 part by weight of alkylaryl polyglycol ether
To produce a suitable preparation of active compound, 1 part by weight of active compound is mixed with the stated amounts of solvent and emulsifier, and the concentrate is diluted with water to the desired concentration. To test for protective activity, young cucumber plants are sprayed with the preparation of active compound at the stated application rate. 1 day after the treatment, the plants are inoculated with a spore suspension of Sphaerotheca fuliginea. The plants are then placed in a greenhouse at 70% relative air humidity and a temperature of 23° C. Evaluation follows 7 days after the inoculation. 0% means an efficacy which corresponds to that of the control, whereas an efficacy of 100% means that no infection is observed. In this test, the following compounds according to the invention show, at an active compound concentration of 500 ppm, an efficacy of 70% or more: […]

Assay [2] has as its system Alternaria solani. The experiment in a line: Alternaria test (tomato)/protective. Conditions: 168 h, tomato plants, protective spray, evaluation 7 days after inoculation, read-out: Efficacy (%). As for the experimental part: Alternaria Test (Tomato)/Protective
as §1, §2
To produce a suitable preparation of active compound, 1 part by weight of active compound is mixed with the stated amounts of solvent and emulsifier, and the concentrate is diluted with water to the desired concentration. To test for protective activity, young tomato plants are sprayed with the preparation of active compound at the stated application rate. 1 day after the treatment, the plants are inoculated with a spore suspension of Alternaria solani and then remain at 100% rd. humidity and 22° C. for 24 h. The plants then remain at 96% rd. atmospheric humidity and a temperature of 20° C. Evaluation is carried out 7 days after the inoculation. 0% means an efficacy which corresponds to that of the control, whereas an efficacy of 100% means that no infection is observed.
(§3) In this test, the following compounds according to the invention show, at an active compound concentration of 500 ppm, an efficacy of 70% or more: […]

The subject of assay [3] is Venturia inaequalis. Nature of the assay: Venturia test (apple)/protective. As to conditions: 240 h, protective spray, evaluation 10 days after inoculation, read-out: Efficacy (%). The protocol:
Venturia Test (Apple)/Protective
(§4) Solvents: 24.5 parts by weight of acetone
(§5) • 24.5 parts by weight of dimethylacetamide Emulsifier: 1 part by weight of alkylaryl polyglycol ether
(§6) To produce a suitable preparation of active compound, 1 part by weight of active compound is mixed with the stated amounts of solvent and emulsifier, and the concentrate is diluted with water to the desired concentration. To test for protective activity, young plants are sprayed with the preparation of active compound at the stated application rate. After the spray coating has dried on, the plants are inoculated with an aqueous conidia suspension of the apple scab pathogen Venturia inaequalis and then remain in an incubation cabin at approx. 20° C. and 100% relative air humidity for 1 day. The plants are then placed in the greenhouse at about 21° C. and a relative atmospheric humidity of about 90%. Evaluation follows 10 days after the inoculation. 0% means an efficacy which corresponds to that of the control, whereas an efficacy of 100% means that no infection is observed.
(§7) In this test, the following compounds according to the invention show, at an active compound concentration of 100 ppm, an efficacy of 70% or more: […]

Assay [4] has as its system Uromyces appendiculatus. The experiment in a line: Uromyces test (bean)/protective. As to conditions: 240 h, protective spray, evaluation 10 days after inoculation, read-out: Efficacy (%). As for the experimental part:
Uromyces Test (Bean)/Protective
as §4, §5
as §6, with “spore” for “conidia”, “bean rust” for “apple scab”, “Uromyces appendiculatus” for “Venturia inaequalis”, “about” for “approx.”, “atmospheric” for “air”
as §7

In assay [5] the test system is Septoria tritici. The experiment in a line: Septoria tritici test (wheat)/protective. As to conditions: Zymoseptoria tritici, 504 h, protective spray, evaluation 21 days after inoculation, read-out: Efficacy (%). The protocol:
Septoria tritici Test (Wheat)/Protective
Solvent: 49 parts by weight of N,N-dimethylacetamide
as §2
To produce a suitable preparation of active compound, 1 part by weight of active compound is mixed with the stated amounts of solvent and emulsifier, and the concentrate is diluted with water to the desired concentration. To test for protective activity, young plants are sprayed with the preparation of active compound at the stated application rate. After the spray coating has dried on, the plants are sprayed with a spore suspension of Septoria tritici. The plants remain in an incubation cabin at 20° C. and 100% relative atmospheric humidity for 48 hours. Thereafter, the plants are placed under a translucent hood at 15° C. and 100% relative air humidity for a further 60 hours. The plants are placed in a greenhouse at a temperature of about 15° C. and a relative atmospheric humidity of about 80%. Evaluation follows 21 days after the inoculation. 0% means an efficacy which corresponds to that of the control, whereas an efficacy of 100% means that no infection is observed.
as §3

Assay [6] relates to Phakopsora pachyrhizi. The experiment in a line: Phakopsora pachyrhizi test (soya bean)/protective. Conditions: protective spray, 100 ppm, evaluation 11 days after inoculation. As for the experimental part:
Phakopsora pachyrhizi Test (Soya Bean)/Protective
Solvent: 28.5 parts by weight of acetone
Emulsifier: 1.5 part by weight of polyoxyethylene alkylphenyl ether
To produce a suitable preparation of active compound, 1 part by weight of active compound is mixed with the stated amounts of solvent and emulsifier, and the concentrate is diluted with water to the desired concentration. To test for protective activity, young plants are sprayed with the preparation of active compound at the stated application rate. 1 day after spraying, the plants are inoculated with an aqueous spore suspension of the soya bean rust pathogen (Phakopsora pachyrhizi). The plants are placed in a greenhouse at a temperature of about 20° C. and a relative atmospheric humidity of about 80%. Evaluation follows 11 days after the inoculation. 0% means an efficacy which corresponds to that of the control, whereas an efficacy of 100% means that no infection is observed.
In this test, the following compounds according to the invention show, at an active compound concentration of 100 ppm, an efficacy of 80% or more: […]

Turning to `CC1(C(O)(COc2ccc(OC(F)(F)F)cc2)c2cncnc2)CC1` (centres unmarked) [Compound 18], the pest or weed control at 500 ppm came out at 95% in assay [1], 90% in assay [2] and 100% in assay [5]. The pest or weed control at 100 ppm in assay [3] was determined as 99%; in assay [4], 100%. Also, the “Efficacy (%)” value in assay [6] worked out at 98%.
On to `CC(C)(C)C(O)(COc1ccc(OC(F)(F)F)cc1)c1cncnc1` (centres unmarked) [Compound 12], for which the pest or weed control at 500 ppm in assay [1], in assay [2] and in assay [5] was 100% in each case. The pest or weed control at 100 ppm in assay [3] came out at 99%; in assay [4], 100%. Also, in assay [6], the “Efficacy (%)” value amounted to 98%.
With `CC(C)(C)C(O)(COc1ccc(SC(F)(F)F)cc1)c1cncnc1` (centres unmarked) [Compound 17], the pest or weed control at 500 ppm in assay [1] amounted to 95%; in assay [2], 94%; in assay [5] it was 100%. Further, the pest or weed control at 100 ppm in assay [3] and in assay [4] was 100% each time. Also, the “Efficacy (%)” value in assay [6] is on record as 97%.
With `CC(C)C(O)(COc1ccc(OC(F)(F)F)cc1)c1cncnc1` (centres unmarked) [Compound 2], the pest or weed control at 500 ppm in assay [1] was 99%; in assay [2] it was 100%; in assay [5], 93%. Also, the pest or weed control at 100 ppm in assay [3] is 94%; in assay [4], 100%.

(Values after US9241487B2, “Pyrimidine derivatives and use thereof as pesticides” (BAYER INTELLECTUAL PROPERTY GMBH, priority 2010, dated 2016).)
